# Assay results published in patent US20240067668A1, “HETEROARYL DERIVATIVE COMPOUND AND USE THEREOF” (VORONOI INC., priority 2020, published 2024).
# How the values were obtained:
# EGFR Del19/T790M/C797S = EGFR Del19/T790M/C797S (Homo sapiens, UniProt P00533, C797S/T790M, form not given); experiment: Enzyme IC50, EGFR Del19/T790M/C797S; type: biochemical
# [1] = test system: BaF3-EGFR (Del19/T790M/C797S) cells; experiment: Inhibitory activity on Ba/F3 cell proliferation (CellTiter-Glo, 72 hours); type: cell-based; conditions: Ba/F3 cells expressing EGFR Del19/T790M/C797S
# Method in brief: (§1)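 Ba/F3 cells expressing wild-type EGFR or EGFR Del19/T790M/C797S, 3×10^3 per well, exposed 72 h at 37 °C to compound at 12 threefold dilutions, 0.00005-10 μM final. Viability by CellTiter-Glo 2.0; GI50 derived from growth relative to DMSO-treated cells.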
# BaF3-EGFR (WT) cells = experiment: as above; type: cell-based; conditions: Ba/F3 cells expressing EGFR WT
# Method in brief: as §1
# EGFR Del19/T790M/C797S, sequence (P00533 25-1210 T790M/C797S, form open): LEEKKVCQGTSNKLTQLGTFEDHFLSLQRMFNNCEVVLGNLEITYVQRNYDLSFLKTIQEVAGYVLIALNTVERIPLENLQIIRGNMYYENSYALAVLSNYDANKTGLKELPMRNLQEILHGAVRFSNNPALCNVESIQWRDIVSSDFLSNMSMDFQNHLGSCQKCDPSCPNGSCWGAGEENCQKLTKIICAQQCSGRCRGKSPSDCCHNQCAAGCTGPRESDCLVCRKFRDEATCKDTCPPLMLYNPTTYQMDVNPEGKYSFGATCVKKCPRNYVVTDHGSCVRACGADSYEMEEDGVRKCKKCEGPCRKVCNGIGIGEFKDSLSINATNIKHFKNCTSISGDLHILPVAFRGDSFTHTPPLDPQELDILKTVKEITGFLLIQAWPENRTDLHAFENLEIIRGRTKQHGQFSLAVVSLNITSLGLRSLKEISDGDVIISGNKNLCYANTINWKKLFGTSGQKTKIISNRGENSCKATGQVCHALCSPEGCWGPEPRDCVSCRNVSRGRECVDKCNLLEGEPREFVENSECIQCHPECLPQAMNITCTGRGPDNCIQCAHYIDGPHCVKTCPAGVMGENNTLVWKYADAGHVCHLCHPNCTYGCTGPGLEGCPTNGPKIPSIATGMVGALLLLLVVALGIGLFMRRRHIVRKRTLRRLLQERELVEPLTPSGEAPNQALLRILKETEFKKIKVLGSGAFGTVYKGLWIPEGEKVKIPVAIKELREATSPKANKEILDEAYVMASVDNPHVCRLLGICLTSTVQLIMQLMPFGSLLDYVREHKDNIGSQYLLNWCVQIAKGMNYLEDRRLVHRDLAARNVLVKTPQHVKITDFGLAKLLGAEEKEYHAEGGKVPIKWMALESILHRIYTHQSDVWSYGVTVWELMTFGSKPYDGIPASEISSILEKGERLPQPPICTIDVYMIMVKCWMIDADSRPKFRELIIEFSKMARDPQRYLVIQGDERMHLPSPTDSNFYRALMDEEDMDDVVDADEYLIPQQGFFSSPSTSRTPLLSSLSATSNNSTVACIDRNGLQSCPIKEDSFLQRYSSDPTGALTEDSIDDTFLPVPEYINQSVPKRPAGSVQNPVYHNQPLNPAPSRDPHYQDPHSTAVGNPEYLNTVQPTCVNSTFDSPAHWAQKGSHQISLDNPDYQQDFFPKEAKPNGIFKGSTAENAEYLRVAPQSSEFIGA
SMILES,IC50 (EGFR Del19/T790M/C797S) [µM],GI50 [1] [µM],GI50 (BaF3-EGFR (WT) cells) [µM]
"CN1CCN(C2CCN(c3c(-c4cnn(C)c4)cc(Nc4nc(Nc5ccc6nccnc6c5P(C)(C)=O)c5cc[nH]c5n4)c4c3CCO4)CC2)CC1 [Example 117, dimethyl (6-((2-((5-(1-methyl-1H-pyrazol-4-yl)-4-(4-(4-methylpiperazin-1-yl)piperidin-1-yl)-2,3-dihydrobenzo-furan-7-yl)amino)-7H-pyrrolo[2,3-d]pyrimidin-4-yl)amino)quinoxalin-5-yl)phosphine oxide]",≤ 0.05,≤ 0.05,> 0.1
"CCN1CCN(C2CCN(c3cc(OC)c(Nc4nc(Nc5ccc6nccnc6c5P(C)(C)=O)c5cc[nH]c5n4)cc3C)CC2)CC1 [Example 61, (6-((2-((4-(4-(4-ethylpiperazin-1-yl)piperidin-1-yl)-2-methoxy-5-methylphenyl)amino)-7H-pyrrolo[2,3-d]pyrimidin-4-yl)amino)quinoxalin-5-yl)dimethyl-phosphine oxide]",≤ 0.05,0.05 to 0.1,> 0.1
"COc1ccc(C)cc1Nc1nc(Nc2ccc3nccnc3c2P(C)(C)=O)c2cc[nH]c2n1 [Example 68, (6-((2-((2-methoxy-5-methylphenyl)amino)-7H-pyrrolo[2,3-d]pyrimidin-4-yl)amino)quinoxalin-5-yl)dimethyl-phosphine oxide]",≤ 0.05,> 0.1,> 0.1
"CCOc1ccc(C(F)(F)F)cc1Nc1nc(Nc2ccc3nccnc3c2P(C)(C)=O)c2cc[nH]c2n1 [Example 69, (6-((2-((2-ethoxy-5-(trifluoromethyl)phenyl)amino)-7H-pyrrolo[2,3-d]pyrimidin-4-yl)amino)quinoxalin-5-yl)dimethyl-phosphine oxide]",> 0.1,> 0.1,> 0.1
"COc1cc(N2CCN(C)CC2)c(-c2ccccc2)cc1Nc1nc(Nc2ccc3nccnc3c2P(C)(C)=O)c2cc[nH]c2n1 [Example 72, (6-((2-((4-methoxy-6-(4-methylpiperazin-1-yl)-[1,1′-biphenyl]-3-yl)amino)-7H-pyrrolo[2,3-d]pyrimidin-4-yl)amino)quinoxalin-5-yl)dimethyl-phosphine oxide]",≤ 0.05,> 0.1,> 0.1
"COc1cc(N2CCC3(CCN(CC4(F)CC4)CC3)CC2)c(-c2cnn(C)c2)cc1Nc1nc(Nc2ccc3nccnc3c2P(C)(C)=O)c2cc[nH]c2n1 [Example 114, (6-((2-((4-(9-((1-fluorocyclo-propyl)methyl)-3,9-diazaspiro[5.5]undecan-3-yl)-2-methoxy-5-(1-methyl-1H-pyrazol-4-yl)phenyl)amino)-7H-pyrrolo[2,3-d]pyrimidin-4-yl)amino)quinoxalin-5-yl)dimethyl-phosphine oxide]",≤ 0.05,≤ 0.05,> 0.1
"COc1cc(N2C[C@H]3CC[C@@H](C2)O3)c(-c2cnn(C)c2)cc1Nc1nc(Nc2ccc3nccnc3c2P(C)(C)=O)c2cc[nH]c2n1 [Example 30, (6-((2-((4-((1R,5S)-8-oxa-3-azabicyclo [3.2.1]octan-3-yl)-2-methoxy-5-(1-methyl-1H-pyrazol-4-yl)phenyl)amino)-7H-pyrrolo[2,3-d]pyrimidin-4-yl)amino)quinoxalin-5-yl)dimethyl-phosphine oxide]",≤ 0.05,≤ 0.05,> 0.1
"COc1cc(N(C)CCN(C)C)c(-c2cnn(C)c2)cc1Nc1nc(Nc2ccc3nccnc3c2P(C)(C)=O)c2cc[nH]c2n1 [Example 36, (6-((2-((4-((2-(dimethylamino)ethyl) (methyl)amino)-2-methoxy-5-(1-methyl-1H-pyrazol-4-yl)phenyl)amino)-7H-pyrrolo[2,3-d]pyrimidin-4-yl)amino)quinoxalin-5-yl)dimethyl-phosphine oxide]",≤ 0.05,≤ 0.05,> 0.1
"COc1cc(N2CCC(N3CCN(C)CC3)CC2)c(-c2cnn(C)c2)cc1Nc1nc(Nc2ccc3nccnc3c2P(C)(C)=O)c2nc[nH]c2n1 [Example 105, (6-((2-((2-methoxy-5-(1-methyl-1H-pyrazol-4-yl)-4-(4-(4-methylpiperazin-1-yl)piperidin-1-yl)phenyl)amino)-9H-purin-6-yl)amino)quinoxalin-5-yl)dimethyl-phosphine oxide]",≤ 0.05,> 0.1,> 0.1
"COc1cc(N2CCC(N3CCN(C(C)C)CC3)CC2)c(C)cc1Nc1nc(Nc2ccc3nccnc3c2P(C)(C)=O)c2cc[nH]c2n1 [Example 62, (6-((2-((4-(4-(4-isopropyl-piperazin-1-yl)piperidin-1-yl)-2-methoxy-5-methylphenyl)amino)-7H-pyrrolo[2,3-d]pyrimidin-4-yl)amino)quinoxalin-5-yl)dimethyl-phosphine oxide]",≤ 0.05,0.05 to 0.1,> 0.1
"COc1cc(N2CCN(C3CCCC3)CC2)c(-c2cnn(C)c2)cc1Nc1nc(Nc2ccc3nccnc3c2P(C)(C)=O)c2cc[nH]c2n1 [Example 22, (6-((2-((4-(4-cyclopentyl-piperazin-1-yl)-2-methoxy-5-(1-methyl-1H-pyrazol-4-yl)phenyl)amino)-7H-pyrrolo[2,3-d]pyrimidin-4-yl)amino)quinoxalin-5-yl) dimethyl-phosphine oxide]",≤ 0.05,≤ 0.05,> 0.1
"COc1cc(N2CCN(C)CC2)c(C2CC2)cc1Nc1nc(Nc2ccc3nccnc3c2P(C)(C)=O)c2cc[nH]c2n1 [Example 83, (6-((2-((5-cyclopropyl-2-methoxy-4-(4-methylpiperazin-1-yl)phenyl)amino)-7H-pyrrolo[2,3-d]pyrimidin-4-yl)amino)quinoxalin-5-yl)dimethyl-phosphine oxide]",≤ 0.05,> 0.1,> 0.1
"COc1cc(N2CCN(C(=O)C3(F)CC3)CC2)c(-c2cnn(C)c2)cc1Nc1nc(Nc2ccc3nccnc3c2P(C)(C)=O)c2cc[nH]c2n1 [Example 112, (4-(4-((4-((5-(dimethyl-phosphoryl)quinoxalin-6-yl)amino)-7H-pyrrolo[2,3-d]pyrimidin-2-yl)amino)-5-methoxy-2-(1-methyl-1H-pyrazol-4-yl)phenyl)piperazin-1-yl)(1-fluorocyclo-propyl) methanone]",0.05 to 0.1,≤ 0.05,> 0.1
"CCn1cc(-c2cc(Nc3nc(Nc4ccc5nccnc5c4P(C)(C)=O)c4cc[nH]c4n3)c(OC)cc2N2CCN(C)CC2)cn1 [Example 47, (6-((2-((5-(1-ethyl-1H-pyrazol-4-yl)-2-methoxy-4-(4-methyl-piperazin-1-yl)phenyl)amino)-7H-pyrrolo[2,3-d]pyrimidin-4-yl)amino)quinoxalin-5-yl)dimethyl-phosphine oxide]",≤ 0.05,≤ 0.05,> 0.1
"CN1CCN(c2c(-c3cnn(C)c3)cc(Nc3nc(Nc4ccc5nccnc5c4P(C)(C)=O)c4cc[nH]c4n3)c3c2CCO3)CC1 [Example 116, dimethyl (6-((2-((5-(1-methyl-1H-pyrazol-4-yl)-4-(4-methyl-piperazin-1-yl)-2,3-dihydrobenzo-furan-7-yl)amino)-7H-pyrrolo[2,3-d]pyrimidin-4-yl)amino)quinoxalin-5-yl)phosphine oxide]",≤ 0.05,≤ 0.05,> 0.1
"COc1cc(N2CCC(N3CCN(C)CC3)CC2)c(-c2cnn(C)c2)cc1Nc1nc(Nc2ccc3nccnc3c2P(C)(C)=O)c2cc[nH]c2n1 [Example 24, (6-((2-((2-methoxy-5-(1-methyl-1H-pyrazol-4-yl)-4-(4-(4-methylpiperazin-1-yl)piperidin-1-yl)phenyl)amino)-7H-pyrrolo[2,3-d]pyrimidin-4-yl)amino)quinoxalin-5-yl)dimethyl-phosphine oxide]",≤ 0.05,≤ 0.05,> 0.1
"Cc1cc(Nc2nc(Nc3ccc4nccnc4c3P(C)(C)=O)c3cc[nH]c3n2)c(OCC(F)(F)F)cc1N1CCC(N2CCN(C)CC2)CC1 [Example 8, dimethyl (6-((2-((5-methyl-4-(4-(4-methylpiperazin-1-yl)piperidin-1-yl)-2-(2,2,2-trifluoroethoxy)phenyl)amino)-7H-pyrrolo[2,3-d]pyrimidin-4-yl)amino)quinoxalin-5-yl)phosphine oxide]",≤ 0.05,≤ 0.05,> 0.1
"COc1cc(F)c(-c2cnn(C)c2)cc1Nc1nc(Nc2ccc3nccnc3c2P(C)(C)=O)c2cc[nH]c2n1 [Example 31, (6-((2-((4-fluoro-2-methoxy-5-(1-methyl-1H-pyrazol-4-yl)phenyl)amino)-7H-pyrrolo[2,3-d]pyrimidin-4-yl)amino)quinoxalin-5-yl)dimethyl-phosphine oxide]",≤ 0.05,> 0.1,> 0.1
"C=CC(=O)Nc1cc(Nc2nc(Nc3ccc4nccnc4c3P(C)(C)=O)c3cc[nH]c3n2)c(OC)cc1N1CCN(C)CC1 [Example 73, N-(5-((4-((5-(dimethyl-phosphoryl)quinoxalin-6-yl)amino)-7H-pyrrolo[2,3-d]pyrimidin-2-yl)amino)-4-methoxy-2-(4-methylpiperazin-1-yl)phenyl) acrylamide]",≤ 0.05,> 0.1,0.05 to 0.1
"COc1cc(N2CCC(N3CCN(C)CC3)CC2)c(C)cc1Nc1nc(Nc2ccc3nccnc3c2P(C)(C)=O)c2nc[nH]c2n1 [Example 104, (6-((2-((2-methoxy-5-methyl-4-(4-(4-methylpiperazin-1-yl)piperidin-1-yl)phenyl)amino)-9H-purin-6-yl)amino)quinoxalin-5-yl)dimethyl-phosphine oxide]",≤ 0.05,> 0.1,> 0.1
